The text below walks through data of US20210236445A1, “BACLOFEN AND ACAMPROSATE BASED THERAPY OF ALZHEIMER'S DISEASE IN PATIENTS HAVING LOST RESPONSIVENESS TO ACETYLCHOLINESTERASE INHIBITOR THERAPY” (priority 2018, published 2021).

Experiment [1] deals with Aβ25-35-induced spontaneous alternation deficits in mice. The experiment in a line: Spontaneous alternation performance (Y-maze) in Aβ25-35 ICV-injected mice. The class given is in vivo, Swiss mice. Particulars: for Effect on Aβ25-35-induced cognitive impairment, spontaneous alternation (Y-maze), after longer treatment / Effect on Aβ25-35-induced cognitive impairment, spontaneous alternation (Y-maze): Example A; for Effect on Aβ25-35-induced cognitive impairment, spontaneous alternation (Y-maze), after longer treatment: treatment alone from D20, tested D38 or D40; for Effect on Aβ25-35-induced cognitive impairment, spontaneous alternation (Y-maze): treatment alone per os from D20, eleven days, tested D30, donepezil 1 mg/Kg once a day or acamprosate/baclofen 0.2/3 mg/Kg twice a day. As for the experimental part:
(§1) Male Swiss mice were anesthetized 5 minutes with isoflurane 2.5%. At Day 01, animals were injected intracerebroventricularly (ICV) through a 28-gauge stainless-steel needle, 4 mm long. An injection volume of 3 μl was delivered gradually within 30 s and the needle left in place for an additional 30 s before being removed. […] Homogeneous preparation of the Aβ25-35 peptide were performed according to the AMYLGEN's own procedure.
(§2) All animals received a per os gavage using an inox steel cannula (5 mL/Kg). All the treatments were administered under a volume calculated according to the individual body weight of each mouse (5 mL/Kg). Vehicle and donepezil (1 mg/Kg) administration were done once a day, and the mix Acamprosate/baclofen twice a day (0.2 mg/Kg and 3 mg/Kg, respectively).
(§3) In a first set of experiments (FIG. 1A), the treatment, donepezil (1 mg/Kg), was started 19 days (D20) after icy injection for 21 days (D40) (group 3 and 4). At D30 one group of animals treated with donepezil was administered with acamprosate and baclofen (0.2 mg/Kg and 3 mg/Kg, respectively), in addition of donepezil treatment (group 4).
(§4) In a second set of experiments (FIG. 1B). The treatment, donepezil (1 mg/kg) (Group 5) or the combination acamprosate and baclofen (0.2 mg/Kg and 3 mg/Kg, respectively) (group 7), was started 19 days (D20) after icy injection and maintained for 23 days (D42) in two groups of animals. In a third group of animals (group 6), initially treated with donepezil, treatment with donepezil was stopped at D30 and replaced with administration of acamprosate and baclofen (0.2 mg/Kg and 3 mg/Kg, respectively) until D42.
(§5) Mice were tested for spontaneous alternation performance in the Y-maze, an index of spatial working memory. The Y-maze was designed according to Itoh et al.,1993 (57) and Hiramatsu and Inoue, 1999 (58), and is made of grey polyvinylchloride. Each arm is 40 cm long, 13 cm high, 3 cm wide at the bottom, 10 cm wide at the top, and converging at an equal angle. Each mouse was placed at the end of one arm and allowed to move freely through the maze during an 8 min session. The series of arm entries, including possible returns into the same arm, were checked visually by an experimenter blind to treatment. An alternation is defined as entries into all three arms on consecutive occasions. The number of maximum alternations were therefore the total number of arm entries minus two and the percentage of alternation as calculated as (actual alternations / maximum alternations)×100. Calculated parameters consisted in the percentage of alternation (memory index) and the total number of arm entries (exploration index) (52-56).
In the first set of experiments (FIG. 1A), animals were tested after the beginning of the treatment at D30 and D38. In the second set of experiments (FIG. 1B), animals were tested after the beginning of the treatment, at D30 and D40.
(§6) All animals received a per os gavage using an inox steel cannula. Vehicle or Donepezil (1 mg/kg) were administered at D8 until D17; or at D20 until D30 or at D20 to D40 once a day. All the treatments were administered under a volume calculated according to the individual body weight of each mouse (5 mL/Kg).
as §5, with “8min” for “8 min”, “occasions.” for “occasions. The number of maximum alternations were therefore the total number of arm entries minus two and the percentage of alternation as calculated as (actual alternations / maximum alternations)×100. Calculated parameters consisted in the percentage of alternation (memory index) and the total number of arm entries (exploration index) (52-56).”

In experiment [2] the test system is Aβ25-35-induced step-through passive avoidance deficits in mice. Nature of the experiment: Step-through passive avoidance test (STPA) in Aβ25-35 ICV-injected mice. The class given is in vivo, Swiss mice. As for the experimental part:
as §1, §2, §3, §4
The guillotine door was initially closed during the training session. Each mouse was placed into the white compartment. After 5 s, the door was raised. […] The retention test was carried out 24 h after training. Each mouse was placed again into the white compartment. After 5 s, the door was raised.
as §6

Experiment [3] deals with Aβ25-35-induced spontaneous alternation deficits in mice. The experiment in a line: Spontaneous alternation performance (Y-maze) in Aβ25-35 ICV-injected mice. The class given is in vivo, Swiss mice. Particulars: Example C.
In experiment [4] the test system is patient's cognitive function. Particulars: cited from earlier work.

Consider `COc1cc2c(cc1OC)C(=O)C(CC1CCN(Cc3ccccc3)CC1)C2` (stereo not drawn) [donepezil], for which the entries for the “Effect on Aβ25-35-induced cognitive impairment, spontaneous alternation (Y-maze), after longer treatment” value in experiment [1] and in experiment [1] (listed as DNPz) were “totally lost” and “not sustained”, respectively. The “Effect on Aβ25-35-induced cognitive impairment, spontaneous alternation (Y-maze)” value was “partially alleviated” in experiment [1] and “partial activity” in experiment [1] (listed as DNPz). The “Percentage drug effect in Y-maze at D30” value in experiment [1] (Example B, 1 mg/Kg D20 until D40, tested at D30) stood at 43%. In addition, the “Percentage drug effect in Y-maze at D38” value in experiment [1] (Example B, 1 mg/Kg D20 until D40, tested at D38, not statistically significant) is given as 25%. Moreover, in experiment [1] (Example B, 1 mg/Kg per os once a day started at D08 (to D17), tested D15), the “Recovery of Aβ25-35-induced cognitive impairment assessed by Y-maze” value is “fully recover”. The “Activity in Y-maze, % of optimal activity” value in experiment [1] (Example B, 1 mg/kg administered D20 to D30, tested D28) is 44%. Moreover, the “Effect on long-term memory, passive avoidance (step-through latency and escape latency)” value in experiment [2] (Example A, treatment alone D20 to D40 or D42, tested D39-40 or D41-42) is given as “partially restored long-term memory”. Besides, the “Recovery of Aβ25-35-induced cognitive impairment assessed by passive avoidance test” value in experiment [2] (Example B, 1 mg/Kg started at D08 (to D17), tested D16-17) is given as “fully recover”. Further, the “Activity in passive avoidance test” value in experiment [2] (Example B, 1 mg/kg administered D20 to D30, tested D29-30) is listed as “partially active”. Moreover, the “Fear conditioning memory assessed by STPA at D99/D100” value in experiment [2] (Example C, end of experiment, treatment until D100) is listed as “altered”. Also, in experiment [3] (1 mg/Kg from D7, at D42), the “% of alternation in Y-maze at D42” value was 47%. Also, the “Difference of Y-maze effect from Sc.Aβ-vehicle animals” value in experiment [3] (1 mg/Kg from D7, between D21 and D28) is “not significantly different”. For the same compound, the “Y-maze activity after D48 until D100” value in experiment [3] (donepezil 1 mg/Kg only, D7 to D100) is “inactivity was sustained”. In experiment [4] (Alzheimer's patients), the “Time after initiation of treatment at which cognitive function reaches its baseline level” value was 30 weeks. Moreover, the “Period during which treatment improved the patient's cognitive function” value in experiment [4] (Alzheimer's patients, from initiation of treatment) is listed as 12 weeks.

Consider `CCN(C)C(=O)Oc1cccc([C@H](C)N(C)C)c1` [rivastigmine], for which the “Efficacy over time in Alzheimer's patients” value in experiment [4] (compared with donepezil studies) was “limited efficacy”.
